This note sets out measurements from US9925263B2, “Liquid pharmaceutical formulations for injection comprising procaine and uses thereof” (EAGLE BIOLOGICS, INC., priority 2013, dated 2018).

One series deals with biosimilar AVASTIN®. The series can be described thus: Viscosity of aqueous solutions of biosimilar AVASTIN® with viscosity-lowering agents. It counts as physicochemical. As for the experimental part: (unless otherwise indicated).
The protein was formulated to contain either 0.25 M phosphate buffer or 0.25 M CSAL.
Subsequently, the appropriate amount of viscosity-lowering agent was added to result in a final viscosity-lowering agent concentration of 0.15-0.35 M upon reconstitution.
The viscosity-lowering agent(s) were added in an amount sufficient to give concentration upon reconstitution as specified below. In cases of combinations of agents, the concentration of each component is 0.15 M. The protein solutions were then freeze-dried.

Another series concerns biosimilar ERBITUX®. The series can be described thus: Viscosity of aqueous solutions of biosimilar ERBITUX® with viscosity-lowering agents. As to conditions: 25° C.
Where [1] appears, read: 200 ± 5 mg/mL mAb, pH 7.0, 25° C., [Salt] 0.25 M of anion, C & P viscometer.
[2] abbreviates: 200 ± 5 mg/mL mAb, pH 7.0, 25° C., [Salt] […] of anion, C & P viscometer.
Setting [3] is: 228 ± 5 mg/mL mAb, agent 0.25 M, 25° C., pH 7.0.
[4] abbreviates: 200 ± 5 mg/mL mAb, pH 7.0, 25° C., [Salt] 0.35 M of anion, C & P viscometer.

Structures can show the parent of a compound that is named as a salt.

For the compound `Cc1nccn1CCCN.Cl.Cl` [APMI*2HCl, 1-(3-aminopropyl)-2-methyl-1H-imidazole dihydrochloride], the “Viscosity-lowering effect as a function of agent concentration” value in the series with biosimilar AVASTIN® (0.10 vs 0.25 M APMI*2HCl, FIG. 7) was “viscosity-lowering effect was increased”.
Take `C[C@H]1[C@H](NC(=O)/C(=N\OC(C)(C)C(=O)O)c2csc(N)n2)C(=O)N1S(=O)(=O)O` [Aztreonam, reference compound]: the Viscosity with biosimilar ERBITUX® (179 mg/mL mAb, 0.02M agent) was 256 ± 4 cP.
Take `N=C(N)NCCC[C@H](N)C(=O)O.O=C(O)c1ccccc1` [Benzoic acid arginine]: the Viscosity in the series on biosimilar AVASTIN® (setting [1]) is reported as 51.4 ± 0.5 cP; in the series with biosimilar AVASTIN® (setting [2]), 52.2 ± 0.5 cP.
Turning to `CC1(C)C2CCC1(CS(=O)(=O)O)C(=O)C2.OCCN(CCO)CCO` (stereo not drawn) [CSA Triethanolamine], the Viscosity in the series on biosimilar AVASTIN® (238 mg/mL mAb, agent […], 25° C.) amounted to 144 ± 1 cP.
Turning to `CC1(C)C2CCC1(CS(=O)(=O)O)C(=O)C2.N=C(N)NOCC[C@H](N)C(=O)O` (stereo not drawn) [CSA canavanine], the Viscosity in the series with biosimilar AVASTIN® (setting [1]) was 75.6 ± 3.0 cP; in the series with biosimilar AVASTIN® (setting [2]), 60.5 ± 0.6 cP.
Take `CO[C@@]1(NC(=O)Cc2cccs2)C(=O)N2C(C(=O)O)=C(COC(N)=O)CS[C@@H]21` [Cefoxitin sodium salt, reference compound]: the Viscosity with biosimilar ERBITUX® (194 mg/mL mAb, […] agent) was 166 ± 8 cP.
For the compound `O=C1NC(c2ccccc2)(c2ccccc2)C(=O)N1COP(=O)(O)O` [Fosphenytoin disodium salt, reference compound], the Viscosity in the series with biosimilar ERBITUX® (188 mg/mL mAb, […] agent) is 119 ± 2 cP.
With `CS(=O)(=O)O.N=C(N)NCCC[C@H](N)C(=O)O` [MSA arginine], in the series with biosimilar AVASTIN® (setting [1]), the Viscosity is 93.1 ± 0.9 cP.
In turn, `COc1c(N2C[C@@H]3CCCN[C@@H]3C2)c(F)cc2c(=O)c(C(=O)O)cn(C3CC3)c12` [Moxifloxacin HCl, reference compound] had a Viscosity in the series with biosimilar ERBITUX® (186 mg/mL mAb, […] agent) of 66.7 ± 1.0 cP.
As to `Cl.[Cl-].c1cc[n+](-c2ccncc2)cc1` [N-(4-Pyridiyl)pyridinium Cl HCl], in the series with biosimilar AVASTIN® (221 mg/mL mAb, […] agent, pH 7.0, 25° C., microfluidic), the Viscosity was found to be 68.5 ± 1.1 cP.
On to `[Cl-].[Na+]` [NaCl, reference compound], for which, in the series on biosimilar AVASTIN® (setting [1]), the Viscosity amounted to 121 ± 8 cP.
In the series on biosimilar ERBITUX® (232 mg/mL mAb, […] agent), `NC(=O)c1cccnc1` [Nicotinamide] came in with a Viscosity of 292 ± 10 cP.
Take `Cc1ncc(CO)c(CO)c1O` [Pyridoxine]: the Viscosity in the series with biosimilar AVASTIN® (227 mg/mL mAb, agent […], 25° C.) came to 107 ± 0 cP.
Consider `CC(=O)[N-]S(=O)(=O)c1ccc(N)cc1.[Na+]` [Sulfacetamide-Na, reference compound], for which the Viscosity with biosimilar AVASTIN® (214 mg/mL mAb, agent […], 25° C.) was found to be 113 ± 1 cP.
For `CNS(=O)(=O)Cc1ccc2[nH]cc(CCN(C)C)c2c1` [Sumatriptan Succinate, reference compound], in the series on biosimilar AVASTIN® (212 mg/mL mAb, agent 0.25M, 25° C.), the Viscosity stood at 93.2 ± 2.7 cP.
Consider “CSA 1-(3-aminopropyl)-2-methyl-1H-imidazole [CSAAPMI-2HCl]”, for which the Viscosity in the series on biosimilar AVASTIN® (210 mg/mL mAb, 0.25 M agent, 25° C., pH 7.0) worked out at 40.9 ± 0.5 cP; in the series on biosimilar AVASTIN® (setting [3]), 71.8 ± 3.2 cP.
As for CSA betaine, the Viscosity in the series with biosimilar AVASTIN® (setting [1]) came out at 66.0 ± 0.7 cP.
Take CSA carnitine: the Viscosity in the series on biosimilar AVASTIN® (setting [1]) is 72.4 ± 1.7 cP.
As to CSA dimethylpiperazine, the Viscosity was 47.4 ± 1.3 cP in the series on biosimilar AVASTIN® (setting [1]) and 51.7 ± 0.9 cP with biosimilar AVASTIN® (setting [4]).
As to CSAthiamine-2NaCl, in the series with biosimilar AVASTIN® (228 ± 5 mg/mL mAb, agent […], 25° C., pH 7.0), the Viscosity is 83.7 ± 2.2 cP. Moreover, in the series on biosimilar AVASTIN® (~230 mg/mL mAb, vs PB, Table 12), the Viscosity reduction entry is on record as “approximately 5 fold”.
With Chlorotheophylline arginine, the Viscosity in the series with biosimilar AVASTIN® (setting [1]) was found to be 104.5 ± 6.5 cP.
For the compound Ethandisulfonate diarginine, the Viscosity in the series with biosimilar AVASTIN® (setting [1]) stood at 105 ± 4 cP; in the series with biosimilar AVASTIN® (setting [2]) it was 77.1 ± 0.3 cP.
Sulfosalicylic acid dilysine: the Viscosity in the series with biosimilar AVASTIN® (setting [3]) amounted to 73.4 ± 0.4 cP.
Consider Toluenesulfonic acid arginine, for which, in the series on biosimilar AVASTIN® (setting [1]), the Viscosity came to 159 ± 5 cP.
Take Toluenesulfonic acid lysine: the Viscosity with biosimilar AVASTIN® (setting [1]) worked out at 118 ± 1 cP.
On to diCSA cadaverine, for which the Viscosity in the series on biosimilar AVASTIN® (setting [1]) is 85.5 ± 5.2 cP; in the series with biosimilar AVASTIN® (setting [4]) it was 65.6 ± 1.6 cP.
